Test results taken from PubChem BioAssay AID330 (DTP/NCI, 2004).
“And” between values parts separate entries of the source, which are not always exact repeats. Equal entries are not always repeated. Inconclusive results and toxic doses are left out. Rule for the calls: active = survival T/C of 150% or more; inactive = T/C below 125% in these data.

Test system: P388 leukemia ip, CD2F1 mice, survival T/C
Test: NCI In Vivo Anticancer Drug Screen. Data for tumor model P388 Leukemia (intraperitoneal) in CD2F1 (CDF1) mice
Conditions: endpoint: median survival time, higher = longer survival
In short: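 Mice carrying the transplanted tumor received test compound or vehicle. Survival was recorded in each group, and the value is the treated-group measurement divided by that of the vehicle-treated control group.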

[1] = dose: 50.0 mg/kg/injection, schedule: Q01DX009 (ip), vehicle: Klucel (hydroxypropylcellulose) (HPC)
[2] = dose: 100.0 mg/kg/injection, schedule: Q01DX009 (ip), vehicle: Klucel (hydroxypropylcellulose) (HPC)
[3] = dose: 200.0 mg/kg/injection, schedule: Q01DX009 (ip), vehicle: Klucel (hydroxypropylcellulose) (HPC)
[4] = dose: 100.0 mg/kg/injection, schedule: Q01DX001 (ip), vehicle: saline with Tween-80
[5] = dose: 200.0 mg/kg/injection, schedule: Q01DX001 (ip), vehicle: saline with Tween-80
[6] = dose: 60.0 mg/kg/injection, schedule: Q01DX005 (ip), vehicle: saline with Tween-80
[7] = dose: 120.0 mg/kg/injection, schedule: Q01DX005 (ip), vehicle: saline with Tween-80
[8] = dose: 240.0 mg/kg/injection, schedule: Q01DX005 (ip), vehicle: saline with Tween-80
[9] = dose: 100.0 mg/kg/injection, schedule: Q04DX003 (ip), vehicle: saline
[10] = dose: 200.0 mg/kg/injection, schedule: Q04DX003 (ip), vehicle: saline
[11] = dose: 400.0 mg/kg/injection, schedule: Q04DX003 (ip), vehicle: saline
[12] = dose: 50.0 mg/kg/injection, schedule: Q01DX005 (ip), vehicle: saline
[13] = dose: 100.0 mg/kg/injection, schedule: Q01DX005 (ip), vehicle: saline
[14] = dose: 200.0 mg/kg/injection, schedule: Q01DX005 (ip), vehicle: saline
[15] = dose: 50.0 mg/kg/injection, schedule: Q01DX009 (ip), vehicle: saline with Tween-80
[16] = dose: 100.0 mg/kg/injection, schedule: Q01DX009 (ip), vehicle: saline with Tween-80
[17] = dose: 200.0 mg/kg/injection, schedule: Q01DX009 (ip), vehicle: saline with Tween-80
[18] = dose: 50.0 mg/kg/injection, schedule: Q01DX005 (ip), vehicle: saline with Tween-80
[19] = dose: 100.0 mg/kg/injection, schedule: Q01DX005 (ip), vehicle: saline with Tween-80
[20] = dose: 12.5 mg/kg/injection, schedule: Q01DX005 (ip), vehicle: Klucel (hydroxypropylcellulose) (HPC)
[21] = dose: 25.0 mg/kg/injection, schedule: Q01DX005 (ip), vehicle: Klucel (hydroxypropylcellulose) (HPC)
[22] = dose: 50.0 mg/kg/injection, schedule: Q01DX005 (ip), vehicle: Klucel (hydroxypropylcellulose) (HPC)

Measured: T/C

Ic1ccc(C2CC(c3ccccc3)=NN2c2ccccc2)cc1 (centres undefined)
inactive: dose: 25.0 mg/kg/injection, schedule: Q01DX009 (ip), vehicle: Klucel (hydroxypropylcellulose) (HPC) 97 % of control | [1] 87 % of control | [2] 87 % of control | [3] 90 % of control

C[Si](C)(C)CSCC#N
inactive: [4] 98 % of control | [5] 107 % of control

O
inactive: dose: 0.01 % in 0.5 ml injection vol, schedule: Q01DX009 (ip), vehicle: water 92 % of control | dose: 0.02 % in 0.5 ml injection vol, schedule: Q01DX009 (ip), vehicle: water 100 % of control and 95 % of control | dose: 0.04 % in 0.5 ml injection vol, schedule: Q01DX009 (ip), vehicle: water 105 % of control | dose: 0.08 % in 0.5 ml injection vol, schedule: Q01DX009 (ip), vehicle: water 100 % of control | dose: 100.0 mg/kg/injection, schedule: Q01DX009 (ip), vehicle: acetone 95 % of control | dose: 200.0 mg/kg/injection, schedule: Q01DX009 (ip), vehicle: acetone 90 % of control | dose: 400.0 mg/kg/injection, schedule: Q01DX009 (ip), vehicle: acetone 100 % of control | dose: 1:0.5 dilution, schedule: Q01DX005 (ip), vehicle: none 112 % of control | dose: 1:1.0 dilution, schedule: Q01DX005 (ip), vehicle: none 100 % of control | dose: 1:2.0 dilution, schedule: Q01DX005 (ip), vehicle: none 114 % of control

CSc1nc(NC2OCC(OC(C)=O)C(OC(C)=O)C2OC(C)=O)c(N=CC=Nc2c(NC3OCC(OC(C)=O)C(OC(C)=O)C3OC(C)=O)nc(SC)n(C)c2=O)c(=O)n1C (centres undefined)
inactive: [6] 95 % of control | [7] 91 % of control | [8] 92 % of control

O=C1c2ccccc2OCC1CS(=O)(=O)CC1COc2ccccc2C1=O (centres undefined)
inactive: [9] 98 % of control | [10] 97 % of control | [11] 91 % of control

O=C(O)C(Nc1ncnc2c1ncn2C1OC(CO)C(O)C1O)C(F)(F)C(=O)O (centres undefined)
inactive: [9] 97 % of control | [10] 100 % of control | [11] 99 % of control

CSc1nsc(SC)c1C(N)=O
inactive: dose: 60.0 mg/kg/injection, schedule: Q01DX005 (ip), vehicle: Klucel (hydroxypropylcellulose) (HPC) 99 % of control | dose: 120.0 mg/kg/injection, schedule: Q01DX005 (ip), vehicle: Klucel (hydroxypropylcellulose) (HPC) 98 % of control | dose: 240.0 mg/kg/injection, schedule: Q01DX005 (ip), vehicle: Klucel (hydroxypropylcellulose) (HPC) 105 % of control

CCOC(C)(OCC)N(C)C
inactive: [12] 101 % of control | [13] 108 % of control | [14] 111 % of control

CC(C)=CCC(OC1OC(CO)C(O)C(O)C1O)C1=CC(=O)c2c(O)ccc(O)c2C1=O (centres undefined)
inactive: dose: 12.5 mg/kg/injection, schedule: Q04DX002 (ip), vehicle: saline with Tween-80 119 % of control | dose: 25.0 mg/kg/injection, schedule: Q04DX002 (ip), vehicle: saline with Tween-80 115 % of control

CCN(CC)CCNc1ccnc(F)n1
inactive: dose: 30.0 mg/kg/injection, schedule: Q01DX005 (ip), vehicle: saline with Tween-80 101 % of control | [6] 103 % of control

CCN(CC)CCNc1ccc(C)c2sc3c(OC)cccc3c(=O)c12
inactive: [15] 113 % of control | [16] 100 % of control | [17] 116 % of control

COc1ccc(C2N=C(N)Nc3nc[nH]c32)c(OC)c1 (centres undefined)
inactive: dose: 50.0 mg/kg/injection, schedule: Q01DX009 (ip), vehicle: suspension in saline 102 % of control | dose: 100.0 mg/kg/injection, schedule: Q01DX009 (ip), vehicle: suspension in saline 115 % of control | dose: 200.0 mg/kg/injection, schedule: Q01DX009 (ip), vehicle: suspension in saline 109 % of control

Nc1nc(N)c2[nH]c(CNc3ccc(C(=O)O)cc3)nc2n1
inactive: [6] 89 % of control | [7] 89 % of control | [8] 86 % of control

c1ccc([C@H]2N[C@@H]2c2ccccn2)cc1
inactive: [18] 106 % of control | [19] 93 % of control

O=C(Nc1ccc2c(c1)Cc1cc(NC(=O)C34CC5CC(CC(C5)C3)C4)ccc1-2)C12CC3CC(CC(C3)C1)C2
inactive: dose: 100.0 mg/kg/injection, schedule: Q04DX002 (ip), vehicle: saline with Tween-80 88 % of control | dose: 200.0 mg/kg/injection, schedule: Q04DX002 (ip), vehicle: saline with Tween-80 89 % of control | dose: 400.0 mg/kg/injection, schedule: Q04DX002 (ip), vehicle: saline with Tween-80 92 % of control

CCO/C=C1\CC(=O)N(c2ccc(F)c(Cl)c2)C1=O
inactive: dose: 25.0 mg/kg/injection, schedule: Q01DX001 (ip), vehicle: saline with Tween-80 100 % of control | dose: 50.0 mg/kg/injection, schedule: Q01DX001 (ip), vehicle: saline with Tween-80 100 % of control | [4] 98 % of control and 100 % of control | [5] 109 % of control | dose: 400.0 mg/kg/injection, schedule: Q01DX001 (ip), vehicle: saline with Tween-80 100 % of control

O=c1cnn2c(n1)OC1C(O)C(CO)OC12 (centres undefined)
inactive: [15] 97 % of control | [16] 97 % of control | [17] 93 % of control

COC(=O)C(CO)NC(=O)C(Cc1cnc[nH]1)N(C(=O)OCc1ccccc1)C(=O)OCc1ccccc1 (centres undefined)
inactive: [18] 94 % of control | [19] 96 % of control | dose: 200.0 mg/kg/injection, schedule: Q01DX005 (ip), vehicle: saline with Tween-80 94 % of control

Cc1[nH]c(C(=O)NN)c(C)c1C(=O)NN
inactive: dose: 25.0 mg/kg/injection, schedule: Q01DX009 (ip), vehicle: saline with Tween-80 91 % of control | [15] 95 % of control | [16] 91 % of control

COc1ccc(N=Cc2cccs2)cc1
inactive: [1] 94 % of control | [2] 114 % of control | [3] 105 % of control

O=C(/C=C\c1ccc(O)c(O)c1)O[C@@H]1C[C@](O)(C(=O)O)C[C@@H](O)[C@H]1O
inactive: dose: 50.0 mg/kg/injection, schedule: Q04DX003 (ip), vehicle: saline 100 % of control | [9] 100 % of control | [10] 105 % of control

CN1CCN(C)C(N2CCOCC2)C(C)(C)C1 (centres undefined)
inactive: [12] 93 % of control | [13] 94 % of control | [14] 95 % of control

Cn1c(SCC(=O)O)nnc1C1CCC(=O)N1Cc1ccccc1 (centres undefined)
inactive: [6] 110 % of control | [7] 103 % of control | [8] 98 % of control

CC(/C=C/c1ccccc1)=N\Nc1ccc(Cl)cc1Cl
inactive: [1] 118 % of control | [2] 100 % of control

N#CC1=C(Nc2ccccc2)CCC1
inactive: [20] 95 % of control | [21] 101 % of control | [22] 99 % of control and 101 % of control | dose: 100.0 mg/kg/injection, schedule: Q01DX005 (ip), vehicle: Klucel (hydroxypropylcellulose) (HPC) 110 % of control

CCOC(=O)C1=C(C)NC(=O)NC1c1coc2cc(C)cc(C)c2c1=O (centres undefined)
inactive: [20] 86 % of control | [21] 91 % of control | [22] 98 % of control and 96 % of control
